Assay [1] relates to TEAD/YAP promoter element in MCF7-Luc cells. The experiment in a line: Cell-based TEAD-promoter transcriptional activity assay (MCF-7 TEAD luciferase). As to conditions: MCF-7 TEAD luciferase assay, 24 hrs. The text has this:
Luciferase based TEAD-transcriptional cell-based reporter assay: To measure the effect of the TEAD inhibitors disclosed herein on TEAD transcriptional activity in cell-based systems, we employed a stable MCF7 cell line expressing luciferase under a consensus synthetic TEAD/YAP promoter element (MCF7-Luc, BPS Bioscience, Catalog #60618). This MCF7-TEAD-Luc cell line has been extensively validated with both genetic and pharmacological intervention, showing inhibition of luciferase expression and luminescence in response to ablation of the TEAD/YAP pathway. MCF7-Luc cells were plated at 10,000 cells per well in white 384-well plates and settled by a quick spin. The media was MEM (Gibco) supplemented with 10% fetal bovine serum (ExCell), selenium-transferrin-insulin mix (Gibco), 1× non-essential amino acids (Gibco) and sodium pyruvate (Gibco). Cells were allowed to attach and grow overnight (37° C., 5% CO2 in humidified incubator), and test compounds were added the next day. Compounds were dissolved at 1000× fold excess in DMSO and made into 2-fold serial dilution, and added to media at 30 μL of media per well. A DMSO-only well serves a vehicle control. The highest concentration of drug in media was 1,000 nM. Positive control compounds include K975 (pan-TEAD inhibitor) and negative control (Actinomycin). Cells were incubated for 24 hrs with test compounds and positive controls, after which time, the luminescence was measured by the One-Glo luciferase kit (Promega). 30 μL of One-Glo reagent was added to each well and shaken for 8 minutes to lyse the cells. The plates were centrifugated at 1000 RPM for 1 minute to settle all liquid in the well and eliminate bubbles. Luminescence was quantified using an ENVision plate reader (Perkin Elmer). Percent inhibition of luminescence by test compound was expressed as a function of test compound concentration, with the no-test compound DMSO only wells serving as baseline. EC50 values for each compound were calculated with a non-linear asymptotic line fit.

Assay [2] has as its system NCI-H23 cells. The experiment in a line: Proliferation and cell viability, CellTiter-Glo 2.0 (CTG) assay. It counts as cell-based. As to conditions: 144 hrs.
Where [3] appears, read: Homo sapiens, NCI-H23, H23-non-responder cell line.

Some results are limits rather than exact numbers.

Broadly, the EC50 is the concentration that produces a half-maximal response. Broadly, the IC50 is the concentration that inhibits the measured activity by half. High values mean lower potency, low ones higher potency. Take `C[C@H](NC(=O)c1cnc2c(C3=CC[C@@H](C(F)(F)F)CC3)cccc2c1)c1ncco1` (single isomer, unassigned) [Compound 19, N-(1-(oxazol-2-yl)ethyl)-8-(4-(trifluoromethyl)cyclohex-1-en-1-yl)quinoline-3-carboxamide]: the EC50 in assay [1] (Homo sapiens, MCF7) was less than 0.2 µM. In addition, the IC50 in assay [2] (setting [3]) is more than 1 µM.
`C[C@H](NC(=O)c1cnc2c(C3=CC[C@@H](C(F)(F)F)CC3)cccc2c1)c1ncco1` (single isomer, unassigned) [Compound 20, N-(1-(oxazol-2-yl)ethyl)-8-(4-(trifluoromethyl)cyclohex-1-en-1-yl)quinoline-3-carboxamide] gave an EC50 in assay [1] of less than 0.2 µM. The IC50 in assay [2] (H23-non-responder cell line) is more than 1 µM.
For `C[C@H](NC(=O)c1cnc2c(C3=CCC(C(F)(F)F)CC3)cccc2c1)c1ccccn1` (stereo partly drawn) [Compound 2, N—((S)-1-(pyridin-2-yl)ethyl)-8-(4-(trifluoromethyl)cyclohex-1-en-1-yl)quinoline-3-carboxamide], the EC50 in assay [1] (Homo sapiens, MCF7) is less than 0.2 µM. Besides, in assay [2] (setting [3]), the IC50 is more than 1 µM.
In turn, `C[C@H](CO)NC(=O)c1cnc2c(C3=CCC(C(F)(F)F)CC3)cccc2c1` (stereo partly drawn) [Compound 7, N—((R)-1-hydroxypropan-2-yl)-8-(4-(trifluoromethyl)cyclohex-1-en-1-yl)quinoline-3-carboxamide] had an IC50 in assay [2] (setting [3]) of more than 1 µM.
In assay [1] (Homo sapiens, MCF7), `O=C(NCc1ncco1)c1cnc2c(C3=CCC(C(F)(F)F)CC3)cccc2c1` (stereo not drawn) [Compound 11, N-(oxazol-2-ylmethyl)-8-(4-(trifluoromethyl)cyclohex-1-en-1-yl)quinoline-3-carboxamide] had an EC50 of less than 0.2 µM. In assay [2] (setting [3]), this compound showed an IC50 of more than 1 µM.

The record behind these values is patent US20250223306A1, “TEAD INHIBITORS AND METHODS OF USE” (Sporos BioDiscovery, Inc., priority 2022, published 2025).
